Laboratory results taken from US6706880B2 (Research Triangle Institute, priority 1990, dated 2004).
Where a name gives a salt, the structure may show the parent alone. Read-outs that look alike come from different tables or passages of the source.

Tests used:
[1] = molecular target: T1, serotonin transporter (Rattus norvegicus, UniProt P31652); test: Inhibition of [3H]paroxetine radioligand binding at the serotonin transporter
T1 construct: from tissue
Excerpt: (§1) Illustrative in vitro assays for binding are described in Boja et al Ann. NY Acad. Sci. 654:282-291 (1992), which is incorporated herein by reference in its entirety. […] Alternatively, the compounds may be analyzed by their ability to inhibit reuptake of a labelled neurotransmitter in a sample, in particular, in synaptosomes.

[2] = molecular target: norepinephrine transporter (UniProt Q9WTR4); test: Inhibition of [3H]nisoxetine radioligand binding at the norepinephrine transporter
Excerpt: as §1

[3] = molecular target: dopamine transporter (UniProt P23977); format: binding
Excerpt: as §1

[4] = IC50 5-HT [3H]-paroxetine, Table IV
[5] = read-out: IC50 NE [3H]-nisoxetine, Table IV
[6] = read-out: IC50 DA [3H]-WIN 35,428, Table IV
[7] = IC50 5-HT [3H]-paroxatine, Table II
[8] = read-out: IC50 NE [3H]-nisoxetine, Table II
[9] = 5-HT=[3H] paroxetine, read-out: 5-HT IC50 for inhibition of radioligand binding
[10] = read-out: NEN IC50 for inhibition of radioligand binding, NEN=[3H] nisoxetine
[11] = read-out: DA IC50 for inhibition of radioligand binding, DA=[3H]WIN 35,428
[12] = 5-HT IC50 for inhibition of radioligand binding, 5-HT=[3H] paroxetine

T1 sequence (P31652 whole entry): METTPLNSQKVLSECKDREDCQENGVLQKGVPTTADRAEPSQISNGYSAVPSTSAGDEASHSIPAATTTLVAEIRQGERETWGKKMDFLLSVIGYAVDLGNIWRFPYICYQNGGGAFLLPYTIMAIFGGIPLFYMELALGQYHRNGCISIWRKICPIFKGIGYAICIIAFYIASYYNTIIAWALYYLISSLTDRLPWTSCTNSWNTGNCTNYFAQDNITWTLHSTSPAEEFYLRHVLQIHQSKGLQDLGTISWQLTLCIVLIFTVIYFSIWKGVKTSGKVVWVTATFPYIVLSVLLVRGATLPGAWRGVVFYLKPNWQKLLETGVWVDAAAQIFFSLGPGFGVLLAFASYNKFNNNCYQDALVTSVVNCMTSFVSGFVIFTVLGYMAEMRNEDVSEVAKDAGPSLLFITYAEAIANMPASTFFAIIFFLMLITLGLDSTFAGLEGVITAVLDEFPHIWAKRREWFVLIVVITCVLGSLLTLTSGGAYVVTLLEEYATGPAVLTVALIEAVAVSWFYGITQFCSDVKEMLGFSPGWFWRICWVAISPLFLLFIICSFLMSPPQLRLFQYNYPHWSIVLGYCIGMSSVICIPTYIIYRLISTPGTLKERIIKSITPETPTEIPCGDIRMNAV

Compound: CN1[C@H]2CC[C@@H]1[C@@H](CO)[C@@H](c1ccc(Cl)cc1)C2 [RTI-93]
- IC50 [1, 4]: 204 ± 16 nM
- IC50 [2, 5]: 43.8 ± 6.4 nM
- IC50 [3, 6]: 1.53 ± 0.15 nM

Compound: CN1[C@H]2CC[C@@H]1[C@@H](CO)[C@@H](c1ccc(Br)cc1)C2 [RTI-99]
- IC50 [1, 4]: 51 ± 4.6 nM
- IC50 [3, 6]: 1.49 ± 0.06 nM

Compound: CN1[C@H]2CC[C@@H]1[C@@H](CO)[C@@H](c1ccc(F)cc1)C2 [RTI-100]
- IC50 [1, 4]: 4740 ± 335 nM
- IC50 [3, 6]: 47 ± 4.6 nM

Compound: CN1[C@H]2CC[C@@H]1[C@@H](C(=O)O)[C@@H](c1ccc(I)cc1)C2 [RTI-102]
- IC50 [1, 4]: 1930 ± 120 nM
- IC50 [2, 5]: 43400 nM
- IC50 [3, 6]: 474 ± 57 nM

Compound: CN1[C@H]2CC[C@@H]1[C@@H](C(=O)O)[C@@H](c1ccc(Br)cc1)C2 [RTI-103]
- IC50 [1, 4]: 3070 ± 208 nM
- IC50 [2, 5]: 17400 nM
- IC50 [3, 6]: 278 ± 43 nM

Compound: CN1[C@H]2CC[C@@H]1[C@@H](C(=O)O)[C@@H](c1ccc(F)cc1)C2 [RTI-104]
- IC50 [1, 4]: > 100 nM
- IC50 [2, 5]: > 100000 nM
- IC50 [3, 6]: 2740 ± 141 nM

Compound: Cc1ccc([C@H]2C[C@@H]3CC[C@H]([C@H]2CN)N3C)cc1 [RTI-131]
- IC50 [1, 4]: 855 ± 52 nM
- IC50 [2, 5]: 120 ± 20 nM
- IC50 [3, 6]: 10.5 ± 1.7 nM

Compound: Cc1ccc([C@H]2C[C@@H]3CC[C@H]([C@H]2C#N)N3C)cc1 [RTI-158, 3β-(4-Methylphenyl)-tropane-2β-nitrile Hydrochloride]
- IC50 [1, 4]: 5100 ± 315 nM
- IC50 [2, 5]: 1620 ± 136 nM
- IC50 [3, 6]: 57 ± 7.3 nM

Compound: CN1[C@H]2CC[C@@H]1[C@@H](c1nnn[nH]1)[C@@H](c1ccc(Cl)cc1)C2 [RTI-163, 3β-(4-Chlorophenyl)-tropane-2β-tetrazole]
- IC50 [1, 7]: 5460 ± 64 nM
- IC50 [2, 8]: 17400 nM

Compound: CNC[C@H]1[C@@H](c2ccc(C)cc2)C[C@@H]2CC[C@H]1N2C [RTI-164]
- IC50 [1, 4]: 2250 ± 94 nM
- IC50 [2, 5]: 280 ± 19 nM
- IC50 [3, 6]: 13.6 ± 2.03 nM

Compound: Cc1cc([C@H]2[C@@H](c3ccc(Cl)cc3)C[C@@H]3CC[C@H]2N3C)on1 [RTI-165, 3β-(4-Chlorophenyl)-2β-(3-methylisoxazol-5-yl)tropane Hydrochloride]
- IC50 [1, 7]: 572 ± 58 nM
- IC50 [2, 8]: 181 ± 12 nM
- IC50 ([3]; read-out: IC50 DA [3H]-WIN 35,428, Table II): 0.59 ± 0.04 nM

Compound: COC(=O)C1C(c2ccc(Cl)cc2)CC2CCC1N2C (centres unmarked) [RTI-4229-31]
- IC50 [1, 9]: 44.5 nM

Compound: COC(=O)C1C(c2ccc(C)cc2)CC2CCC1N2C (centres unmarked) [RTI-4229-32]
- IC50 [2, 10]: 60 nM
- IC50 [3, 11]: 1.71 nM

Compound: COC(=O)C1C(c2ccc(Br)cc2)CC2CCC1N2C (centres unmarked) [RTI-4229-51]
- IC50 [1, 12]: 240 nM
- IC50 [3, 11]: 1.69 nM

Compound: COC(=O)C1C(c2ccc(I)cc2)CC2CCC1N2C (centres unmarked) [RTI-4229-55]
- IC50 [1, 9]: 4.21 nM
- IC50 [2, 10]: 36 nM
- IC50 [3, 11]: 1.26 nM

Compound: CN1C2CCC1C(C(=O)OCCc1ccc(N)c(I)c1)C(c1ccc(Cl)cc1)C2 (centres unmarked) [RTI-4229-77]
- IC50 [2, 10]: 2250 nM
- IC50 [3, 11]: 2.51 nM

Compound: CCc1ccc(C2CC3CCC(C2C(=O)OC)N3C)cc1 (centres unmarked) [RTI-4229-83]
- IC50 [1, 9]: 28.4 nM
- IC50 [3, 11]: 55 nM

Compound: Cc1noc(C2C(c3ccccc3)CC3CCC2N3C)n1 (centres unmarked) [RTI-4229-87]
- IC50 [1, 12]: 28400 nM
- IC50 [2, 10]: 35800 nM
- IC50 [3, 11]: 204 nM

Compound: COC(=O)C1C(c2ccc(F)c(C)c2)CC2CCC1N2C (centres unmarked) [RTI-4229-96]
- IC50 [1, 12]: 76 nM
- IC50 [2, 10]: 520 nM
- IC50 [3, 11]: 2.95 nM

Compound: COC(=O)[C@@H]1C2CCC(C[C@@H]1c1ccc(N)c(Br)c1)N2C (some centres unmarked) [RTI-4229-97]
- IC50 [1, 12]: 181 nM
- IC50 [2, 10]: 282 nM
- IC50 [3, 11]: 3.91 nM

Compound: CN1C2CCC1C(CO)C(c1ccc(I)cc1)C2 (centres unmarked) [RTI-4229-101]
- IC50 [1, 12]: 26 nM
- IC50 [1, 4]: 26 ± 3.2 nM
- IC50 [3, 11]: 2.2 nM
- IC50 [3, 6]: 2.2 ± 0.19 nM

Compound: Cc1noc(C2C(c3ccc(Cl)cc3)CC3CCC2N3C)n1 (centres unmarked) [RTI-4229-125]
- IC50 [1, 12]: 2580 nM
- IC50 [2, 10]: 363 nM

Compound: COC(=O)C1C2CCC(C[C@H]1c1ccccc1)N2C (some centres unmarked) [RTI-4229-140]
- IC50 [2, 10]: 2080 nM
- IC50 [3, 11]: 101 nM

Compound: Cc1ccc(C2CC3CCC([C@@H]2c2nc(-c4ccccc4)no2)N3C)cc1 (some centres unmarked) [RTI-4229-152]
- IC50 [2, 10]: 22700 nM
- IC50 [3, 11]: 494 nM

Compound: COC(=O)C1C(c2ccc(F)cc2)CC2CCC1N2C (centres unmarked) [RTI-4229-286]
- IC50 [1, 12]: 5060 nM
- IC50 [2, 10]: 1230 nM

Compound: COC(=O)C1C2CCC(CC1c1ccc(C(C)C)cc1)N2 (centres unmarked) [RTI-4229-330]
- IC50 [1, 9]: 15.1 nM
- IC50 [3, 11]: 310 nM
